Results on twelve compounds are retold here after article PMC9490236, “Accurate de novo design of membrane-traversing macrocycles” (Cell, 2022).

The structures appear in SMILES notation. Where a SMILES comes first, the peptide text is derived from it. [ ]: non-standard residue; d: D form. dNMeF = CN[C@H](Cc1ccccc1)C(=O)O; NMeL = CN[C@@H](CC(C)C)C(=O)O; dNMeL = CN[C@H](CC(C)C)C(=O)O; NMeV = CN[C@H](C(=O)O)C(C)C; NMeA = CN[C@@H](C)C(=O)O; dNMeA = CN[C@H](C)C(=O)O

For data set [1] the following is noted: PAMPA.
A further data set can be described thus: in vitro. The conditions noted are these: PAMPA, PAMPA_Papp_Avg.

The Papp is a coefficient for how fast a substance crosses the barrier. In data set [1], `CC(C)[C@@H]1NC(=O)[C@H]2CCCN2C(=O)[C@@H](C(C)C)NC(=O)[C@@H]2CCCN2C(=O)[C@H](Cc2ccccc2)NC(=O)[C@H](Cc2ccccc2)NC(=O)[C@H]2CCCN2C(=O)[C@@H](C(C)C)NC(=O)[C@@H]2CCCN2C(=O)[C@H](C(C)C)NC1=O` [Design D10.27, PRO DVAL DPRO VAL VAL PRO DVAL DPRO PHE PHE] (cyclo(FFP[dV][dP]VVP[dV][dP])) registered a PAMPA_R1 of 5.18E-07 and a PAMPA_R3 of 5.10E-07. In “in vitro”, this compound gave a Papp of 0.49 ×10⁻⁶ cm/s.
The matching figures for `CC(C)C[C@@H]1C(=O)N[C@@H](C)C(=O)N[C@H](CC(C)C)C(=O)N(C)[C@@H](C)C(=O)N2CCC[C@@H]2C(=O)N2CCC[C@@H]2C(=O)N2CCC[C@@H]2C(=O)N2CCC[C@H]2C(=O)N[C@H](C(C)C)C(=O)N(C)[C@@H](CC(C)C)C(=O)N1C` [Design D10.28, DLEU *ALA DPRO DPRO DPRO PRO DVAL *LEU *DLEU ALA] (cyclo([dV][NMeL][dNMeL]A[dL][NMeA][dP][dP][dP]P)): 1.56E-07, 2.34E-07 and 0.184 ×10⁻⁶ cm/s.
Take `CC(C)C[C@@H]1C(=O)N(C)[C@H](C)C(=O)N(C)[C@@H](C(C)C)C(=O)N2CCC[C@@H]2C(=O)N[C@H](C)C(=O)N[C@@H](Cc2ccccc2)C(=O)N2CCC[C@@H]2C(=O)N2CCC[C@H]2C(=O)N[C@H](C(C)C)C(=O)N[C@@H](C(C)C)C(=O)N1C` [Design D10.29, PHE DPRO PRO DVAL VAL *DLEU *DALA *VAL DPRO DALA] (cyclo([dV]V[dNMeL][dNMeA][NMeV][dP][dA]F[dP]P)): in data set [1], the PAMPA_R1 is given as 3.87E-07 and the PAMPA_R3 came to 4.67E-07. This compound also registered an apparent permeability (Papp) in the data set “in vitro” of 0.441 ×10⁻⁶ cm/s.
In the case of `CC(C)C[C@H]1NC(=O)[C@H](CC(C)C)N(C)C(=O)[C@@H](Cc2ccccc2)NC(=O)[C@@H](C)N(C)C(=O)[C@@H]2CCCN2C(=O)[C@H](C(C)C)NC(=O)[C@H](CC(C)C)N(C)C(=O)[C@@H](C)NC(=O)[C@@H]2CCCN2C(=O)[C@H]2CCCN2C1=O` [Design D10.32, PRO *DALA DPHE *LEU DLEU DPRO PRO DALA *LEU VAL] (cyclo([dA][NMeL]VP[dNMeA][dF][NMeL][dL][dP]P)), in data set [1], the PAMPA_R1 amounted to 2.87E-06 and the PAMPA_R3 is 2.80E-06. Besides, in “in vitro”, the Papp came to 3.18 ×10⁻⁶ cm/s.
The matching figures for `CC(C)C[C@@H]1NC(=O)[C@H](C(C)C)NC(=O)[C@@H](CC(C)C)N(C)C(=O)[C@H](C)NC(=O)[C@@H](CC(C)C)N(C)C(=O)[C@@H]2CCCN2C(=O)[C@H]2CCCN2C(=O)[C@H](C)N(C)C(=O)[C@H]2CCCN2C(=O)[C@@H](CC(C)C)NC1=O` [Design D10.35, LEU DLEU DPRO *ALA DPRO PRO *DLEU ALA *DLEU VAL] (cyclo([dNMeL]A[dNMeL]VL[dL][dP][NMeA][dP]P)): 5.25E-07, 2.07E-07 and 0.279 ×10⁻⁶ cm/s.
For `CC[C@@H](C)[C@H]1NC(=O)[C@@H](Cc2ccccc2)NC(=O)[C@H](CC(C)C)NC(=O)[C@@H](C)N(C)C(=O)[C@@H](CC(C)C)NC(=O)[C@H](CC(C)C)NC(=O)[C@H]2CCCN2C(=O)[C@@H]2CCCN2C(=O)[C@@H](C)NC(=O)[C@H]2CCCN2C1=O` [Design D10.37, DLEU *DALA LEU DPHE DILE DPRO DALA PRO DPRO LEU] (cyclo(L[dF][dI][dP][dA]P[dP]L[dL][dNMeA])) the same measures were 7.62E-07, 6.36E-07 and 0.654 ×10⁻⁶ cm/s.
For `CC[C@@H](C)[C@H]1NC(=O)[C@H]2CCCN2C(=O)[C@@H]2CCCN2C(=O)[C@@H](CC(C)C)NC(=O)[C@H](C)NC(=O)[C@@H](CC(C)C)N(C)C(=O)[C@@H](C)N(C)C(=O)[C@@H]2CCCN2C(=O)[C@@H]([C@H](C)CC)NC(=O)[C@@H](CC(C)C)N(C)C1=O` [Design D10.39, PRO *DALA *DLEU ALA DLEU PRO DPRO DILE *DLEU DILE] (cyclo(A[dL]P[dP][dI][dNMeL][dI]P[dNMeA][dNMeL])), in data set [1], the PAMPA_R1 is 1.69E-06 and the PAMPA_R3 worked out at 1.47E-06. Further, the Papp in “in vitro” amounted to 1.48 ×10⁻⁶ cm/s.
For `CC(C)C[C@H]1NC(=O)[C@@H](C(C)C)NC(=O)[C@H](CC(C)C)N(C)C(=O)[C@@H](Cc2ccccc2)NC(=O)[C@H](CC(C)C)N(C)C(=O)[C@H]2CCCN2C(=O)[C@@H]2CCCN2C(=O)[C@H]2CCCN2C(=O)[C@@H](C(C)C)NC(=O)[C@H]2CCCN2C1=O` [Design D10.42, DVAL DLEU DPRO DVAL DPRO PRO DPRO *LEU DPHE *LEU] (cyclo([dP][NMeL][dF][NMeL][dV][dL][dP][dV][dP]P)) the same measures were 7.55E-07, 8.78E-07 and 0.71 ×10⁻⁶ cm/s.
The matching figures for `CC(C)C[C@@H]1C(=O)N[C@@H](C)C(=O)N[C@H](CC(C)C)C(=O)N2CCC[C@H]2C(=O)N[C@H](C)C(=O)N2CCC[C@@H]2C(=O)N2CCC[C@H]2C(=O)N[C@H](C(C)C)C(=O)N[C@H](CC(C)C)C(=O)N(C)[C@H](CC(C)C)C(=O)N1C` [Design D10.43, DALA DPRO PRO DVAL DLEU *DLEU *DLEU ALA DLEU PRO] (cyclo([dV][dL][dNMeL][dNMeL]A[dL]P[dA][dP]P)): 1.81E-07, 1.70E-07 and 0.161 ×10⁻⁶ cm/s.
The matching figures for `CC[C@H](C)[C@@H]1NC(=O)[C@@H](Cc2ccccc2)NC(=O)[C@@H](C)NC(=O)[C@@H](C(C)C)NC(=O)[C@H](CCSC)NC(=O)[C@@H]2CCCN2C(=O)[C@H]2CCCN2C(=O)[C@@H]2CCCN2C(=O)[C@@H](C)N(C)C(=O)[C@@H](CC(C)C)N(C)C1=O` [Design D10.45, DVAL DALA DPHE ILE *DLEU *DALA PRO DPRO PRO MET] (cyclo(M[dV][dA][dF]I[dNMeL][dNMeA]P[dP]P)): 5.38E-07, 3.72E-07 and 0.487 ×10⁻⁶ cm/s.
As to `CC[C@@H](C)[C@H]1NC(=O)[C@@H](CC(C)C)NC(=O)[C@@H](CC(C)C)NC(=O)[C@H]2CCCN2C(=O)[C@H](CC(C)C)N(C)C(=O)[C@@H](C)N(C)C(=O)[C@@H]2CCCN2C(=O)[C@@H]([C@H](C)CC)NC(=O)[C@@H](C(C)C)NC(=O)[C@@H]2CCCN2C1=O` [Design D10.46, PRO DVAL DILE PRO *DALA *LEU DPRO DLEU DLEU DILE] (cyclo([NMeL][dP][dL][dL][dI]P[dV][dI]P[dNMeA])), in data set [1], the PAMPA_R1 was 8.07E-07 and the PAMPA_R3 was 6.41E-07. In the data set “in vitro”, this compound yielded a Papp of 0.684 ×10⁻⁶ cm/s.
For `CC(C)C[C@@H]1NC(=O)[C@@H](Cc2ccccc2)N(C)C(=O)[C@H](C(C)C)NC(=O)[C@H](C)NC(=O)[C@@H](C)NC(=O)[C@@H](Cc2ccccc2)N(C)C(=O)[C@@H]2CCCN2C(=O)[C@H](C(C)C)NC(=O)[C@@H]2CCCN2C(=O)[C@@H](C)NC1=O` [Design D10.48, DALA PRO VAL PRO *DPHE DALA ALA VAL *DPHE LEU] (cyclo(AV[dNMeF]L[dA]PVP[dNMeF][dA])) the same measures were 3.54E-07, 4.59E-07 and 0.405 ×10⁻⁶ cm/s.
